Measured values taken from patent US20240158446A1, “CYCLIC COMPOUND HAVING SELECTIVE INHIBITORY ACTION ON KRAS OVER HRAS AND NRAS” (CHUGAI SEIYAKU KABUSHIKI KAISHA, priority 2021, published 2024).
*1 amine or outer side, *2 acyl side, *3 side chain or, on linkers, in order; H or OH if unused. Where a SMILES comes first, the peptide text is derived from it. Bridges are numbered along the chain shown (N, C = ends). [ ]: non-standard residue; d: D form. The star is where a group is joined. hPhe(3-Cl-4-CF3) = N[C@@H](CCc1ccc(C(F)(F)F)c(Cl)c1)C(=O)O; X36 = Cc1ccc(C[C@@H](C(=O)[*:2])N(CCC(F)(F)F)[*:1])cc1; X41 = Cc1ccc(C[C@@H](C(=O)[*:2])N(CC2CCCCC2)[*:1])cc1; X20 = Cc1ccc(C[C@@H](C(=O)[*:2])N(CC2CCCC2)[*:1])cc1; NMePhe(4-CF3) = CN[C@@H](Cc1ccc(C(F)(F)F)cc1)C(=O)O; X15 = Cc1ccc(C[C@@H](C(=O)[*:2])N(CCC(C)C)[*:1])cc1; X18 = Cc1ccc(C[C@@H](C(=O)[*:2])N(CC(C)C)[*:1])cc1; X21 = Cc1ccc(C[C@@H](C(=O)[*:2])N(CC2CC2)[*:1])cc1; X30 = C=CCCN([C@@H](Cc1ccc(C)cc1)C(=O)[*:2])[*:1]; X46 = CCCCN([C@@H](Cc1ccc(C)cc1)C(=O)[*:2])[*:1]; NPrPhe(4-Me) = CCCN[C@@H](Cc1ccc(C)cc1)C(=O)O; NMeGly(cPent) = CN[C@H](C(=O)O)C1CCCC1; NMeD = CN[C@@H](CC(=O)O)C(=O)O; NMeL = CN[C@@H](CC(C)C)C(=O)O; Morpholide = C1CN(*)CCO1; NMeA = CN[C@@H](C)C(=O)O; Ac5c = NC1(C(=O)O)CCCC1; Aze = O=C(O)[C@@H]1CCN1; NEtG = CCNCC(=O)O; Sar = CNCC(=O)O

Columns and labels:
[1] = target: GDP-bound KRAS wild-type protein (Homo sapiens, UniProt P01116); test: Binding to KRAS by surface plasmon resonance (SPR), Single Cycle Kinetics; settings: SPR Single Cycle Kinetics, GDP-bound KRAS wild-type protein, 1:1 binding model; read-out: KRAS KD
[2] = target: GDP-bound NRAS wild-type protein (Homo sapiens, UniProt P01111); test: Binding to NRAS by surface plasmon resonance (SPR), Single Cycle Kinetics; settings: SPR, GDP-bound NRAS wild-type protein vs GDP-bound KRAS wild-type protein
[3] = target: GDP-bound HRAS wild-type protein (Homo sapiens, UniProt P01112); test: Binding to HRAS by surface plasmon resonance (SPR), Single Cycle Kinetics; settings: SPR, GDP-bound HRAS wild-type protein vs GDP-bound KRAS wild-type protein
GDP-bound HRAS wild-type protein, sequence (P01112 whole entry): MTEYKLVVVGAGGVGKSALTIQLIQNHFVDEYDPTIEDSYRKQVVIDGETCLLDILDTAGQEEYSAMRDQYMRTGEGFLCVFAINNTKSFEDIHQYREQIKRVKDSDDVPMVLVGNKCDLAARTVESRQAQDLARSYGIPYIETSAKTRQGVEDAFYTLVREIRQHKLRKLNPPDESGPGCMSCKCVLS

GDP-bound NRAS wild-type protein, sequence (P01111 whole entry): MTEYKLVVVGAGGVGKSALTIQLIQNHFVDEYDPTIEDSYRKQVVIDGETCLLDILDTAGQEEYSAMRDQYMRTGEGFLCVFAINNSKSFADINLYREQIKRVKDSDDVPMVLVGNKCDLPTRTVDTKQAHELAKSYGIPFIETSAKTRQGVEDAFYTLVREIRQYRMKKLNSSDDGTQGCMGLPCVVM
GDP-bound KRAS wild-type protein, sequence (P01116 whole entry): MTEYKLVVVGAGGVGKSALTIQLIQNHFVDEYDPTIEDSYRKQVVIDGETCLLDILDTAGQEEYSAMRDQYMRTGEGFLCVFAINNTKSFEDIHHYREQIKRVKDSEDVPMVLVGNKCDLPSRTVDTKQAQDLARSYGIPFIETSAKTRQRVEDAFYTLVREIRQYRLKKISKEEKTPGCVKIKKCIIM

Compound	Kd [1] [nM]	NRAS/KRAS (ratio of KD value for NRAS to KD value for KRAS) [2]	HRAS/KRAS (ratio of KD value for HRAS to KD value for KRAS) [3]
CCCCN1C(=O)CN(C)C(=O)CN(C)C(=O)[C@H]([C@@H](C)CC)NC(=O)[C@H](CC(C)C)N(C)C(=O)C[C@@H](C(=O)N2CCOCC2)N(C)C(=O)[C@H](C2CCCC2)N(C)C(=O)C2(CCCC2)NC(=O)[C@@H]2CCCN2C(=O)[C@H](CCc2ccc(C(F)(F)F)c(Cl)c2)NC(=O)CN(C)C(=O)[C@@H]1Cc1ccc(C)cc1 [PP0062] ([NMeL]I[Sar][Sar][X46][Sar][hPhe(3-Cl-4-CF3)]P[Ac5c][NMeGly(cPent)][NMeD]-Morpholide; lactam N-11)	0.21	C (A compound having a KD ratio of 0.1 or more and less than 3 is denoted as C)	C (A compound having a KD ratio of 0.1 or more and less than 3 is denoted as C)
CC[C@H](C)[C@@H]1NC(=O)[C@H](CC(C)C)N(C)C(=O)C[C@@H](C(=O)N2CCOCC2)N(C)C(=O)[C@H](C2CCCC2)N(C)C(=O)C2(CCCC2)NC(=O)[C@@H]2CCCN2C(=O)[C@H](CCc2ccc(C(F)(F)F)c(Cl)c2)NC(=O)CN(C)C(=O)[C@H](Cc2ccc(C)cc2)N(CC(C)C)C(=O)CN(C)C(=O)CN(C)C1=O [PP0063] ([NMeL]I[Sar][Sar][X18][Sar][hPhe(3-Cl-4-CF3)]P[Ac5c][NMeGly(cPent)][NMeD]-Morpholide; lactam N-11)	2.9	C (A compound having a KD ratio of 0.1 or more and less than 3 is denoted as C)	C (A compound having a KD ratio of 0.1 or more and less than 3 is denoted as C)
CC[C@H](C)[C@@H]1NC(=O)[C@H](CC(C)C)N(C)C(=O)C[C@@H](C(=O)N2CCOCC2)N(C)C(=O)[C@H](C2CCCC2)N(C)C(=O)C2(CCCC2)NC(=O)[C@@H]2CCCN2C(=O)[C@H](CCc2ccc(C(F)(F)F)c(Cl)c2)NC(=O)CN(C)C(=O)[C@H](Cc2ccc(C)cc2)N(CC2CC2)C(=O)CN(C)C(=O)CN(C)C1=O [PP0064] ([NMeL]I[Sar][Sar][X21][Sar][hPhe(3-Cl-4-CF3)]P[Ac5c][NMeGly(cPent)][NMeD]-Morpholide; lactam N-11)	0.42	C (A compound having a KD ratio of 0.1 or more and less than 3 is denoted as C)	C (A compound having a KD ratio of 0.1 or more and less than 3 is denoted as C)
CCCN1C(=O)CN(CC)C(=O)CN(C)C(=O)[C@H]([C@@H](C)CC)NC(=O)[C@H](CC(C)C)N(C)C(=O)C[C@@H](C(=O)N2CCOCC2)N(C)C(=O)[C@H](C2CCCC2)N(C)C(=O)C2(CCCC2)NC(=O)[C@@H]2CCCN2C(=O)[C@H](CCc2ccc(C(F)(F)F)c(Cl)c2)NC(=O)CN(C)C(=O)[C@@H]1Cc1ccc(C)cc1 [PP0065] ([NMeL]I[Sar][NEtG][NPrPhe(4-Me)][Sar][hPhe(3-Cl-4-CF3)]P[Ac5c][NMeGly(cPent)][NMeD]-Morpholide; lactam N-11)	0.54	C (A compound having a KD ratio of 0.1 or more and less than 3 is denoted as C)	C (A compound having a KD ratio of 0.1 or more and less than 3 is denoted as C)
CCCN1C(=O)CN(C)C(=O)CN(C)C(=O)[C@H]([C@@H](C)CC)NC(=O)[C@H](CC(C)C)N(C)C(=O)C[C@@H](C(=O)N2CCOCC2)N(C)C(=O)[C@H](C2CCCC2)N(C)C(=O)C2(CCCC2)NC(=O)[C@@H]2CCCN2C(=O)[C@H](CCc2ccc(C(F)(F)F)c(Cl)c2)NC(=O)CN(CC)C(=O)[C@@H]1Cc1ccc(C)cc1 [PP0066] ([NMeL]I[Sar][Sar][NPrPhe(4-Me)][NEtG][hPhe(3-Cl-4-CF3)]P[Ac5c][NMeGly(cPent)][NMeD]-Morpholide; lactam N-11)	1.4	B (a compound having 3 or more and less than 10 is denoted as B)	C (A compound having a KD ratio of 0.1 or more and less than 3 is denoted as C)
CCCN1C(=O)CN(CC)C(=O)CN(C)C(=O)[C@H]([C@@H](C)CC)NC(=O)[C@H](CC(C)C)N(C)C(=O)C[C@@H](C(=O)N2CCOCC2)N(C)C(=O)[C@H](C2CCCC2)N(C)C(=O)C2(CCCC2)NC(=O)[C@@H]2CCCN2C(=O)[C@H](CCc2ccc(C(F)(F)F)c(Cl)c2)NC(=O)CN(CC)C(=O)[C@@H]1Cc1ccc(C)cc1 [PP0069] ([NMeL]I[Sar][NEtG][NPrPhe(4-Me)][NEtG][hPhe(3-Cl-4-CF3)]P[Ac5c][NMeGly(cPent)][NMeD]-Morpholide; lactam N-11)	6.9	C (A compound having a KD ratio of 0.1 or more and less than 3 is denoted as C)	C (A compound having a KD ratio of 0.1 or more and less than 3 is denoted as C)
CC[C@H](C)[C@@H]1NC(=O)[C@H](CC(C)C)N(C)C(=O)C[C@@H](C(=O)N2CCOCC2)N(C)C(=O)[C@H](C2CCCC2)N(C)C(=O)C2(CCCC2)NC(=O)[C@@H]2CCCN2C(=O)[C@H](CCc2ccc(C(F)(F)F)c(Cl)c2)NC(=O)CN(C)C(=O)[C@H](Cc2ccc(C(F)(F)F)cc2)N(C)C(=O)CN(C)C(=O)CN(C)C1=O [PP0076] ([NMeL]I[Sar][Sar][NMePhe(4-CF3)][Sar][hPhe(3-Cl-4-CF3)]P[Ac5c][NMeGly(cPent)][NMeD]-Morpholide; lactam N-11)	0.064	C (A compound having a KD ratio of 0.1 or more and less than 3 is denoted as C)	C (A compound having a KD ratio of 0.1 or more and less than 3 is denoted as C)
CC[C@H](C)[C@@H]1NC(=O)[C@H](CC(C)C)N(C)C(=O)C[C@@H](C(=O)N2CCOCC2)N(C)C(=O)[C@H](C2CCCC2)N(C)C(=O)C2(CCCC2)NC(=O)[C@@H]2CCCN2C(=O)[C@H](CCc2ccc(C(F)(F)F)c(Cl)c2)NC(=O)CN(C)C(=O)[C@H](Cc2ccc(C)cc2)N(CC2CCCC2)C(=O)[C@@H]2CCN2C(=O)[C@H](C)N(C)C1=O [PP0084] ([NMeL]I[NMeA][Aze][X20][Sar][hPhe(3-Cl-4-CF3)]P[Ac5c][NMeGly(cPent)][NMeD]-Morpholide; lactam N-11)	2.7	C (A compound having a KD ratio of 0.1 or more and less than 3 is denoted as C)	B (a compound having 3 or more and less than 10 is denoted as B)
CC[C@H](C)[C@@H]1NC(=O)[C@H](CC(C)C)N(C)C(=O)C[C@@H](C(=O)N2CCOCC2)N(C)C(=O)[C@H](C2CCCC2)N(C)C(=O)C2(CCCC2)NC(=O)[C@@H]2CCCN2C(=O)[C@H](CCc2ccc(C(F)(F)F)c(Cl)c2)NC(=O)CN(C)C(=O)[C@H](Cc2ccc(C)cc2)N(CC2CCCCC2)C(=O)[C@@H]2CCN2C(=O)[C@H](C)N(C)C1=O [PP0085] ([NMeL]I[NMeA][Aze][X41][Sar][hPhe(3-Cl-4-CF3)]P[Ac5c][NMeGly(cPent)][NMeD]-Morpholide; lactam N-11)	8.4	C (A compound having a KD ratio of 0.1 or more and less than 3 is denoted as C)	C (A compound having a KD ratio of 0.1 or more and less than 3 is denoted as C)
CC[C@H](C)[C@@H]1NC(=O)[C@H](CC(C)C)N(C)C(=O)C[C@@H](C(=O)N2CCOCC2)N(C)C(=O)[C@H](C2CCCC2)N(C)C(=O)C2(CCCC2)NC(=O)[C@@H]2CCCN2C(=O)[C@H](CCc2ccc(C(F)(F)F)c(Cl)c2)NC(=O)CN(C)C(=O)[C@H](Cc2ccc(C)cc2)N(CCC(C)C)C(=O)[C@@H]2CCN2C(=O)[C@H](C)N(C)C1=O [PP0086] ([NMeL]I[NMeA][Aze][X15][Sar][hPhe(3-Cl-4-CF3)]P[Ac5c][NMeGly(cPent)][NMeD]-Morpholide; lactam N-11)	0.26	C (A compound having a KD ratio of 0.1 or more and less than 3 is denoted as C)	B (a compound having 3 or more and less than 10 is denoted as B)
C=CCCN1C(=O)[C@@H]2CCN2C(=O)[C@H](C)N(C)C(=O)[C@H]([C@@H](C)CC)NC(=O)[C@H](CC(C)C)N(C)C(=O)C[C@@H](C(=O)N2CCOCC2)N(C)C(=O)[C@H](C2CCCC2)N(C)C(=O)C2(CCCC2)NC(=O)[C@@H]2CCCN2C(=O)[C@H](CCc2ccc(C(F)(F)F)c(Cl)c2)NC(=O)CN(C)C(=O)[C@@H]1Cc1ccc(C)cc1 [PP0089] ([NMeL]I[NMeA][Aze][X30][Sar][hPhe(3-Cl-4-CF3)]P[Ac5c][NMeGly(cPent)][NMeD]-Morpholide; lactam N-11)	0.17	C (A compound having a KD ratio of 0.1 or more and less than 3 is denoted as C)	B (a compound having 3 or more and less than 10 is denoted as B)
CC[C@H](C)[C@@H]1NC(=O)[C@H](CC(C)C)N(C)C(=O)C[C@@H](C(=O)N2CCOCC2)N(C)C(=O)[C@H](C2CCCC2)N(C)C(=O)C2(CCCC2)NC(=O)[C@@H]2CCCN2C(=O)[C@H](CCc2ccc(C(F)(F)F)c(Cl)c2)NC(=O)CN(C)C(=O)[C@H](Cc2ccc(C)cc2)N(CCC(F)(F)F)C(=O)[C@@H]2CCN2C(=O)[C@H](C)N(C)C1=O [PP0091] ([NMeL]I[NMeA][Aze][X36][Sar][hPhe(3-Cl-4-CF3)]P[Ac5c][NMeGly(cPent)][NMeD]-Morpholide; lactam N-11)	0.23	C (A compound having a KD ratio of 0.1 or more and less than 3 is denoted as C)	B (a compound having 3 or more and less than 10 is denoted as B)
